Measured values taken from the NIST ThermoML archive (doi:10.1021/je900719z).

Settings: Liquid, Ebulliometric method (Recirculating still)

CCO [ethanol]
Settings | vapor or sublimation pressure [kPa]
325.48 K | 33
326.03 K | 33.9
326.48 K | 34.6
326.93 K | 35.3
327.33 K | 36
327.8 K | 36.8
328.26 K | 37.6
328.73 K | 38.4
329.18 K | 39.2
329.62 K | 40
330.11 K | 40.9
330.62 K | 41.9
331.16 K | 42.9
331.66 K | 43.9
332.17 K | 44.9
332.68 K | 45.9
333.15 K | 46.9
333.86 K | 48.4
334.55 K | 49.9
335.17 K | 51.3
335.84 K | 52.8
336.28 K | 53.85
336.81 K | 55.13
337.31 K | 56.32
337.86 K | 57.69
338.32 K | 58.87
338.97 K | 60.49
339.47 K | 61.82
339.99 K | 63.19
340.47 K | 64.47
340.82 K | 65.48
341.18 K | 66.45
341.68 K | 67.91
342.01 K | 68.92
342.53 K | 70.35
343.05 K | 71.88
343.54 K | 73.35
343.97 K | 74.68
344.41 K | 76.08
344.93 K | 77.68
345.3 K | 78.95
345.77 K | 80.44
346.17 K | 81.82
346.75 K | 83.74
347.17 K | 85.17
347.51 K | 86.38
347.91 K | 87.78
348.29 K | 89.17
348.62 K | 90.34
349.03 K | 91.82
349.36 K | 93.08
349.67 K | 94.24
350.05 K | 95.68
350.44 K | 97.16
350.82 K | 98.63
351.17 K | 100.02
351.51 K | 101.38
351.76 K | 102.37
352.07 K | 103.64
352.45 K | 105.17
352.79 K | 106.59
353.15 K | 108.08
353.5 K | 109.58
353.79 K | 110.8
354.14 K | 112.36
354.46 K | 113.75
354.82 K | 115.35
355.15 K | 116.81
355.51 K | 118.44
355.85 K | 120.01
356.22 K | 121.68
356.54 K | 123.23
356.81 K | 124.46
357.16 K | 126.16
357.48 K | 127.68
357.89 K | 129.67

O [water]
Settings | vapor or sublimation pressure [kPa]
333.02 K | 19.55
333.56 K | 20.05
334.08 K | 20.55
334.59 K | 21.05
335.15 K | 21.6
335.64 K | 22.1
336.11 K | 22.6
336.66 K | 23.15
337.12 K | 23.65
337.65 K | 24.22
338.13 K | 24.75
338.6 K | 25.3
339.12 K | 25.9
339.62 K | 26.45
340.15 K | 27.1
340.63 K | 27.7
341.25 K | 28.45
341.67 K | 29
342.13 K | 29.6
342.71 K | 30.33
343.17 K | 30.95
343.73 K | 31.72
344.21 K | 32.4
344.73 K | 33.15
345.22 K | 33.85
345.66 K | 34.5
346.11 K | 35.15
346.61 K | 35.9
347.15 K | 36.75
347.62 K | 37.5
348.15 K | 38.32
348.22 K | 38.47
348.65 K | 39.18
349.17 K | 40.04
349.68 K | 40.88
350.22 K | 41.85
350.66 K | 42.59
351.18 K | 43.5
351.67 K | 44.39
352.13 K | 45.28
352.64 K | 46.19
353.13 K | 47.14
353.65 K | 48.15
354.12 K | 49.06
354.63 K | 50.07
355.13 K | 51.1
355.71 K | 52.36
356.14 K | 53.24
356.65 K | 54.34
357.13 K | 55.42
357.69 K | 56.64
358.16 K | 57.69
358.65 K | 58.78
359.19 K | 60.08
359.62 K | 61.09
360.26 K | 62.64
360.74 K | 63.82
361.2 K | 64.95
361.61 K | 65.98
362.13 K | 67.33
362.71 K | 68.85
363.17 K | 70.05
363.72 K | 71.54
364.28 K | 73.07
364.75 K | 74.38
365.34 K | 76.08
365.84 K | 77.53
366.34 K | 78.95
366.86 K | 80.58
367.35 K | 82.03
367.83 K | 83.48
368.33 K | 85.04
368.8 K | 86.54
369.27 K | 88.07
369.69 K | 89.44
370.03 K | 90.54
370.62 K | 92.52
371.09 K | 94.12
371.52 K | 95.59
371.94 K | 97.02
372.36 K | 98.48
372.78 K | 100.03
373.16 K | 101.39
373.59 K | 103
374 K | 104.48
374.39 K | 105.94
374.82 K | 107.57
375.18 K | 108.97
375.6 K | 110.58
376.1 K | 112.55
376.46 K | 113.99
376.86 K | 115.58
377.21 K | 117.02
377.57 K | 118.54
377.92 K | 119.94
378.29 K | 121.58
378.65 K | 123.07
378.99 K | 124.48
379.33 K | 126.01
379.71 K | 127.64
380 K | 128.92
380.36 K | 130.53
380.74 K | 132.25
